Reference: patent US6372768B1, “2-aminopyridines containing fused ring substituents” (Pfizer INC, priority 1999, dated 2002)
Where a name gives a salt, the structure may show the parent alone.

Row | Structure (SMILES) | melting point
1 | Nc1cccc(-c2ccc(OCCO)c3c2CCCC3)n1 (as salt: hydrochloride) [Example 2, 6-[4-(2-Hydroxy-ethoxy)-5,6,7,8-tetrahydro-naphthalen-1-yl]-pyridin-2-ylamine] | 170 to 172 °C
2 | CN(C)CCOCCOc1ccc(-c2cccc(N)n2)c2ccccc12 (as salt: hydrochloride) [Example 3, 6-[4-(2-(2-Dimethylaminoethoxy)-ethoxy)-naphthalen-1-yl]-pyridin-2-ylamine] | 60 to 75 °C (dec.)
